Measured values taken from patent US10168342B2, “Lipid probes and uses thereof” (THE SCRIPPS RESEARCH INSTITUTE, priority 2015, dated 2019).
pIC50: −log10 of the molar value.

Assays:
human NUCB1 = molecular target: T1, human NUCB1 (Homo sapiens, UniProt Q02818); assay: In vitro gel-based competition of AEA-DA probe labeling of NUCB1; type: binding; conditions: for pIC50: AEA-DA 5 μM, recombinant NUCB1 0.25 μM doped into HEK293T lysates, percent of maximal competition, read-out: IC50, blockade of AEA-DA probe labeling of NUCB1
T1 construct: made in house; host or cells: Escherichia coli BL21(DE3)
T1 sequence (Q02818 27-461): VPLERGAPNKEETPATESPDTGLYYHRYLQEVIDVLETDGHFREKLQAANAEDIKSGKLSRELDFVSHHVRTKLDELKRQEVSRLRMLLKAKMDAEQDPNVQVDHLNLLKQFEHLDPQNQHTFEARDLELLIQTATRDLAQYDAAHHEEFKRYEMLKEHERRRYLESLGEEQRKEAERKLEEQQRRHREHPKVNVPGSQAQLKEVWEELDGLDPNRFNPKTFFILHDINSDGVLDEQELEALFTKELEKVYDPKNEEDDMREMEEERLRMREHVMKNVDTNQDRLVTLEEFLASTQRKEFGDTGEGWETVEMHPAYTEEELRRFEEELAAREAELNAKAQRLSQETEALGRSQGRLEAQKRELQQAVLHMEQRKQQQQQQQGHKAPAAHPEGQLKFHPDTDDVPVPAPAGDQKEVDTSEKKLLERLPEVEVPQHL
Protocol: Human NUCB1 lacking the N-terminal signal sequence (M1-A26) was subcloned into pET45b(+) vector (Novagen) using the following PCR primers for amplification: 5′-CATCAATTGTGTGCCCCTGGAGAGAG-3′ and 5′-AGCAAGCTTTACAGATGTTGGGGCACC-3′. Following transformation of Escherichia coli strain BL21(DE3) with hNucb1ΔSSpET45b(+), a single colony was isolated and grown in Terrific Broth containing carbenicillin (100 mg/L) at 37° C. to an OD600 of 0.8. Protein expression was induced with IPTG (1.0 mM) and the cells were incubated at 20° C. with shaking overnight. After centrifugation, cells pellets were resuspended in cold buffer containing HEPES (0.05M), NaCl (0.03 M), imidazole (5.0 mM), DNase (0.1 mg/mL), MgCl2 (1.0 mM), CaCl2 (1.0 mM) and EDTA-free Complete Protease Inhibitor Cocktail and lysed using a microfluidizer. […] The suspension was applied to a column and the retained resin was washed with HEPES buffer containing 500 mM NaCl until the eluent was clean of DNA and protein (A280/260) and then with HEPES buffer containing 10 mM imidazole (5 mL/1 mL resin). Protein was then slowly eluted with HEPES buffer containing 50 mM imidazole in 1.0 mL fractions and the combined fractions containing hNUCB1 were passed through a Sephadex G-25M column to remove imidazole and concentrated in an Amicon centrifugal filter device (Millipore). These conditions produced hNUCB1 at approximately 10 mg/L of culture; however, several lower molecular weight fragments were also present in this preparation. hNUCB1 was further purified by size exclusion chromatography.
Cell lysates (1.0 mg/mL), the indicated lipid probe (2.5 or 5 μM) and, for recombinant NUCB1 competition experiments, purified hNUCB1 (250 nM) and CaCl2 (100 μM) were mixed on ice. DMSO or competitors were then added to the proteome mixture (50 μM) in 96-well plates and each sample was incubated for 15 min at 37° C. The samples were then irradiated with UV light and subjected to previously described click chemistry conditions. As before, each reaction was quenched with 4×SDS loading buffer (17 μL), and proteins were resolved using SDS-PAGE (10% acrylamide gel) and analyzed by in-gel fluorescent scanning on a Hitachi FMBIO-II flatbed fluorescence scanner. NUCB1 competition was quantitatively assessed by measuring the fluorescent intensity of the corresponding gel band using ImageJ 1.48v and normalizing this value by a non-competed gel band to control for loading differences.
Metabolite data are shown as mean±SEM (n=3-5/group). Differences between two groups were determined using Student's t test (unpaired, two-tailed) and significance was denoted for P values<0.05.

[1] = molecular target: T2, A-DA lipid probe targets in A549 cells (Homo sapiens, UniProt P50402); assay: In situ competitive SILAC profiling with A-DA probe in (PMA-stimulated) A549 cells; conditions: A549 cells, A-DA probe
T2 sequence (P50402 1-254): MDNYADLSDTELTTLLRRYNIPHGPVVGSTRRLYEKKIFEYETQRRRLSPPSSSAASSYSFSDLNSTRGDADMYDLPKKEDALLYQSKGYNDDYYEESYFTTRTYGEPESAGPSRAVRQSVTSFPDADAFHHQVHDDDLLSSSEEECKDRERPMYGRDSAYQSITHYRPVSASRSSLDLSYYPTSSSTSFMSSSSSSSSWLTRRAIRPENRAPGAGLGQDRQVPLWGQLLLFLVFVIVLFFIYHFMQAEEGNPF

[2] = molecular target: T3, A-DA lipid probe targets in A549 cells (Homo sapiens, UniProt Q15738); assay: as above; conditions: A549 cells, A-DA probe
T3 sequence (Q15738 1-373): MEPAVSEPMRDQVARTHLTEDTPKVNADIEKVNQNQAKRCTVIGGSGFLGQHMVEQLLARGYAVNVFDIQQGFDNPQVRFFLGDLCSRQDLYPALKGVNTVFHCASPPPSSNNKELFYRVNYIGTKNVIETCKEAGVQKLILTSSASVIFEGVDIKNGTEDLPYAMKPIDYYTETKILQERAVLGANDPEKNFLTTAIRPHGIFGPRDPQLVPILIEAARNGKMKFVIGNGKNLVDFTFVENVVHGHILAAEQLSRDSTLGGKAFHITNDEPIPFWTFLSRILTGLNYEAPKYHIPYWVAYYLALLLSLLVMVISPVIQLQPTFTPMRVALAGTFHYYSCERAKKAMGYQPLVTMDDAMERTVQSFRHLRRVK

[3] = molecular target: A-DA lipid probe targets in A549 cells (Homo sapiens, UniProt P21796); assay: as above; conditions: A549 cells, A-DA probe
[4] = molecular target: T4, A-DA lipid probe targets in A549 cells (Homo sapiens, UniProt P67812); assay: as above; conditions: A549 cells, A-DA probe
T4 sequence (P67812 1-179): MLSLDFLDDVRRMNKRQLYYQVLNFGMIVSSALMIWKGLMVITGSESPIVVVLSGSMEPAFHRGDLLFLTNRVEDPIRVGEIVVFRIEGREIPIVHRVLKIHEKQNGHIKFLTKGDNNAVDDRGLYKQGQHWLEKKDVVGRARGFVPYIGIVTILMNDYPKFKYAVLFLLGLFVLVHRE

Chain of A-DA lipid probe targets in A549 cells (Homo sapiens, UniProt P21796) (P21796 whole entry): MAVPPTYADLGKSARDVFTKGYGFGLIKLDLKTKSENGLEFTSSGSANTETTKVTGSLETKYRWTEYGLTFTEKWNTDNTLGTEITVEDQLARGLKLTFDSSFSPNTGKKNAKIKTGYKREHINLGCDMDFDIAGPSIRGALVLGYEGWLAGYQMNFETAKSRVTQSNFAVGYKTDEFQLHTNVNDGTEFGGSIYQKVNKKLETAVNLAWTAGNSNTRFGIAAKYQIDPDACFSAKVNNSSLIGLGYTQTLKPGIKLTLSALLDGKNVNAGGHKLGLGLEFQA

In the case of CCCCC/C=C\C/C=C\C/C=C\C/C=C\CCCC(=O)NCCO [AEA, anandamide, reference compound], the “competition of AEA-DA probe labeling of recombinant NUCB1 by lipids” value (human NUCB1; AEA-DA 5.0 μM, lipids 20×, NUCB1-transfected HEK293T lysates) was “blocked”.
O=C(/C=C/c1cccnc1)NCCCCC1CCN(C(=O)c2ccccc2)CC1 [FK-866, reference compound] was tested, and the “SILAC ratio, EMD (O08579)” value ([1]; competitor 25 μM) was 1.3, the “SILAC ratio, NSDHL (Q15738)” value ([2]; competitor 25 μM) was 1.4 and the “SILAC ratio, VDAC1 (P21796)” value ([3]; competitor 25 μM) was 1.3. The “SILAC ratio, SEC11A (P67812)” value ([4]; competitor 25 μM) was 1.2.
With CN1CCN(C(=O)c2c(-c3ccccc3)c3cc([N+](=O)[O-])ccc3n2C)CC1 [KML110, (1-Methyl-5-nitro-3-phenyl-1H-indol-2-yl)(4-methylpiperazin-1-yl)methanone] the pIC50 (human NUCB1) was 5.02.
CN1CCN(C(=O)c2[nH]c3ccc([N+](=O)[O-])cc3c2-c2ccccc2)CC1 [MJN228, (4-Methylpiperazin-1-yl)(5-nitro-3-phenyl-1H-indol-2-yl)methanone] showed a pIC50 (human NUCB1) of 5.48.
For C=CCN(C)CCCCCCOc1ccc(C(=O)c2ccc(Br)cc2)c(F)c1 [Ro488071], the “SILAC ratio, EMD (O08579)” value ([1]; competitor 5 μM) was 0.6, the “SILAC ratio, EMD (O08579)” value ([1]; competitor 50 μM) was 0.8 and the “SILAC ratio, NSDHL (Q15738)” value ([2]; competitor 5 μM) was 1.5. The “SILAC ratio, NSDHL (Q15738)” value ([2]; competitor 50 μM) was 2.5, the “SILAC ratio, VDAC1 (P21796)” value ([3]; competitor 5 μM) was 1.4 and the “SILAC ratio, VDAC1 (P21796)” value ([3]; competitor 50 μM) was 3.3. The “SILAC ratio, SEC11A (P67812)” value ([4]; competitor 5 μM) was 1.5 and the “SILAC ratio, SEC11A (P67812)” value ([4]; competitor 50 μM) was 3.3.
